Experimental data published in article PMC9436819 (JACC: Basic to Translational Science, 2022).
“Also recorded” adds a separate entry of the source. Where two headings read alike, the source gives them in different places.

Columns and labels:
[1] = Plasma pharmacokinetics after single oral doses (SAD cohorts); type: in vivo, human; conditions: for half-life / Cmax / AUC / Tmax / AUC(0-inf) / Vd/F: human, plasma; for half-life: po; for AUC: read-out: AUC24; for Vd/F: read-out: Vz/F
Experimental: The SAD portion of the study used a randomized, double-blind, placebo-controlled, sequential, escalating dose design, in which participants received single ascending oral doses of the study drug. Seven cohorts were dosed in sequence (Figure 1).
For all study groups, blood samples for PK assessment were obtained predose, up to 12 times daily on day 1, and then at regular intervals throughout the study (see Supplemental Appendix for details). Standard noncompartmental methods were used to calculate PK parameters using Phoenix WinNonlin, version 7.0; actual sample collection times were used.
Statistical A nalysis of P harm acokinetic (PK) P aram eters
The PK analyses w ere int ended to assess single- dose kinetics, multiple-dose (steady state) […]
and the influence of food on the absorption and eli mination of aficamten.
For the SAD cohort, dos e proportionality of afi camten was evaluat ed using a power model on […]
and day 14 or 17. Several considerations were taken into account when assessing dose proportionality of the drug, such as results derived from the power model statistical analysis (e.g., the slope estimate and width of the 2- sided 95% confidence intervals [CIs ]), qualitative assessment specific to th e PK of the drug, and clinical relev ance. For th e SAD cohort, the […]
time curve (A UC)from time 0 to the time of the last measurable concentration(AUC last), AUC […]
plasma concent ration ( C max). […]
The statistical linear relationship between the ln-transformed PK parameters and the ln-transformed dos e was verified by including the quadratic (ln Dos e)2 and cubic (ln Dose) 3 effects.
The statistical linear relationship was established if the quadratic and cubi c effects were not […]
significant, but of such small magnitude that they were not clinically relevant. The dose-proportionality analysis was performed using SAS® PROC MIXED.

healthy adults = test: Overall safety and tolerability (AEs, ECG, vital signs, laboratory tests), all cohorts; type: in vivo, human
Experimental: Safety was assessed by the incidence of adverse events (AEs) and by the incidence of reduced LVEF. Treatment-emergent AEs (TEAEs) were defined as AEs that began or increased after study drug administration. All AEs were coded using the Medical Dictionary for Regulatory Activities, version 21.1, and graded using the National Cancer Institute Common Terminology Criteria for AEs (version 4.03) 5-point severity scale.[18] Each AE was judged as either related or unrelated to the study drug by the treating investigator. Clinical laboratory tests were obtained at regular intervals in all cohorts.
For safety monitoring, participants in all cohorts had periodic echocardiograms, which were assessed by a cardiologist. In the SAD and MAD cohorts, echocardiograms were also reviewed by an echocardiography core laboratory for PD assessments, as described in the section on echocardiographic methods. In addition, participants in all cohorts were monitored with continuous 12-lead ECG recording using Holter monitors. For safety monitoring, a single 12-lead ECG was extracted at screening, predose, and periodically throughout follow-up and interpreted by the investigator. In the SAD, MAD, and CYP2D6-PM cohorts, cardiodynamic ECGs (triplicate 10-second, 12-lead ECG recordings) were obtained before the corresponding PK blood sample (see the Supplemental Appendix for full details on blood sampling), and ECG intervals were quantitated by qualified readers.

rat and dog = conditions: cited from earlier work
[2] = single oral dose 1 mg, geometric mean (geometric CV%), n = 6
[3] = single oral dose 3 mg, geometric mean (geometric CV%), n = 6
[4] = single oral dose 3 mg, mean ± SD, n = 5
[5] = single oral dose 10 mg, mean ± SD, n = 4
[6] = single oral dose 25 mg, geometric mean (geometric CV%), n = 6
[7] = single oral dose 25 mg, mean ± SD, n = 6
[8] = single oral dose 40 mg, geometric mean (geometric CV%), n = 6
[9] = single oral dose 40 mg, mean ± SD, n = 5
[10] = single oral dose 50 mg, geometric mean (geometric CV%), n = 11
[11] = single oral dose 50 mg, mean ± SD, n = 9

half-life ([1]; 3 mg, single oral dose 3 mg, mean ± SD, n = 5, read-out: t1/2 (converted)): 75.1 ± 21.8 h | half-life ([1]; 10 mg, single oral dose 10 mg (extensive metabolizers), mean ± SD, n = 4, read-out: t1/2 (converted)): 85 h | half-life ([1]; 25 mg, single oral dose 25 mg, mean ± SD, n = 6, read-out: t1/2 (converted)): 79.8 ± 10 h | half-life ([1]; 40 mg, single oral dose 40 mg, mean ± SD, n = 4, read-out: t1/2 (converted)): 79.2 ± 18.5 h | half-life ([1]; 50 mg, single oral dose 50 mg, mean ± SD, n = 9, read-out: t1/2 (converted)): 80.4 ± 14.9 h | half-life ([1]; single oral doses, read-out: Mean half-life, range across single-dose cohorts): 75 to 85 h | Cmax [1, 2]: 0.0058 µg/mL | AUC [1, 2]: 0.05 µg·h/mL | Tmax ([1]; single oral dose 1 mg, median (range), n = 6, read-out: Tmax): 1 h | AUC(0-inf) ([1]; single oral dose 3 mg, geometric mean (geometric CV%), n = 5): 0.823 µg·h/mL | Cmax [1, 3]: 0.0261 µg/mL | AUC [1, 3]: 0.174 µg·h/mL | Vd/F [1, 4]: 393 ± 122 L | Tmax ([1]; single oral dose 3 mg, median (range), n = 6, read-out: Tmax): 1.3 h | AUC ([1]; single oral dose 10 mg (extensive metabolizers), geometric mean (geometric CV%), n = 6): 0.679 µg·h/mL | AUC(0-inf) ([1]; single oral dose 10 mg, geometric mean (geometric CV%), n = 4): 3.43 µg·h/mL | Cmax ([1]; single oral dose 10 mg, geometric mean (geometric CV%), n = 6): 0.0705 µg/mL | Vd/F [1, 5]: 362 ± 108 L | Tmax ([1]; single oral dose 10 mg, median (range), n = 6, read-out: Tmax): 2.8 h | AUC(0-inf) [1, 6]: 7.11 µg·h/mL | Cmax [1, 6]: 0.193 µg/mL | AUC [1, 6]: 1.49 µg·h/mL | Vd/F [1, 7]: 405 ± 56.6 L | Tmax ([1]; single oral dose 25 mg, median (range), n = 6, read-out: Tmax): 1.8 h | AUC(0-inf) ([1]; single oral dose 40 mg, geometric mean (geometric CV%), n = 5): 11.9 µg·h/mL | Cmax [1, 8]: 0.383 µg/mL | AUC [1, 8]: 2.53 µg·h/mL | Vd/F [1, 9]: 382 ± 66.9 L | Tmax ([1]; single oral dose 40 mg, median (range), n = 6, read-out: Tmax): 1 h | AUC(0-inf) ([1]; single oral dose 50 mg, geometric mean (geometric CV%), n = 9): 13.7 µg·h/mL | Cmax [1, 10]: 0.359 µg/mL | AUC [1, 10]: 2.83 µg·h/mL | Vd/F [1, 11]: 431 ± 123 L | Tmax ([1]; single oral dose 50 mg, median (range), n = 11, read-out: Tmax): 1 h | Tmax ([1]; single oral dose 75 mg, median (range), n = 1, read-out: Tmax): 0.5 h | Cmax ([1]; single oral dose 75 mg, n = 1): 1.22 µg/mL | AUC ([1]; single oral dose 75 mg, n = 1): 4.56 µg·h/mL | Tmax ([1]; single oral doses 1 to 75 mg, read-out: Median time to reach peak concentrations, range across doses): 0.5 to 2.76 h | CL/F [1, 4]: 4.2 ± 3.1 L/h | t1/2 ([1]; single oral dose 10 mg (extensive metabolizers), mean ± SD, n = 4): 84.7 ± 17.7 h | CL/F [1, 5]: 3.0 ± 0.7 L/h | CL/F [1, 7]: 3.6 ± 0.5 L/h | CL/F [1, 9]: 3.4 ± 0.6 L/h | CL/F [1, 11]: 3.8 ± 1.1 L/h | Maximum time to maximum observed concentration across all participants ([1]; single oral doses): 4.0 h
Structure (SMILES): CCc1nc(-c2ccc3c(c2)CC[C@H]3NC(=O)c2cnn(C)c2)no1 [Aficamten]
Dose proportionality of Cmax and exposure ([1]; single oral doses 1 to 50 mg): dose-proportional; also recorded: dose proportionality; also recorded: linear kinetics | Discontinuation of the study because of AEs (healthy adults; all cohorts): no participants discontinued | Serious AEs (healthy adults; all cohorts): no serious AEs; also recorded: without serious AEs | Vital signs at postdose timepoints (healthy adults; all cohorts): within normal limits | QTcF at baseline or any assessment during the dosing interval (healthy adults; all cohorts, exception of 2 individuals with baseline QTcF ≥440 ms whose QTcF increased by 3 and 13 ms): ≤ 450 ms | Increase in QTcF interval (healthy adults; all cohorts, only exception was 1 participant in the SAD placebo group): ≤ 30 ms | Serum chemistry, hematology, or urinalysis findings (healthy adults; during the study): No clinically significant | Effect on the QT interval (cardiodynamic assessments) (healthy adults; following single or multiple doses): no evidence of an effect | Tolerability (healthy adults; single doses of ≤50 mg or daily dosing of ≤10 mg for 14 or 17 days): safe and well tolerated | Severity of observed TEAEs (healthy adults; single-dose and multiple-dose administration): generally mild (grade 1) | Exposure-response relationship shallower than that of mavacamten (rat and dog; comparison in rats and dogs): roughly 3 fold | Ventricular contractility (rat and dog; rat and dog): reduces ventricular contractility in a dose- and exposure-dependent manner
